Results: ChEMBL document CHEMBL1201862, “PubChem BioAssay data set” (2004)
The source made the active and inactive calls.

Assays:
[1] = target: FAD-linked sulfhydryl oxidase ALR (Homo sapiens, UniProt P55789); test: ALR-catalysed DTT oxidation blockers – biochemical, H2O2 detection, luminescence, cherry-pick, dose response (AID 493248)
Cytochrome P450 2C19 = Cytochrome P450 2C19 (Homo sapiens, UniProt P33261); test: Cytochrome panel assay with activity outcomes. Panel member name: p450-cyp2c19 Compounds with AC50 equal or less than 10 uM are considered active; format: functional
Cytochrome P450 2C19, sequence (P33261 whole entry): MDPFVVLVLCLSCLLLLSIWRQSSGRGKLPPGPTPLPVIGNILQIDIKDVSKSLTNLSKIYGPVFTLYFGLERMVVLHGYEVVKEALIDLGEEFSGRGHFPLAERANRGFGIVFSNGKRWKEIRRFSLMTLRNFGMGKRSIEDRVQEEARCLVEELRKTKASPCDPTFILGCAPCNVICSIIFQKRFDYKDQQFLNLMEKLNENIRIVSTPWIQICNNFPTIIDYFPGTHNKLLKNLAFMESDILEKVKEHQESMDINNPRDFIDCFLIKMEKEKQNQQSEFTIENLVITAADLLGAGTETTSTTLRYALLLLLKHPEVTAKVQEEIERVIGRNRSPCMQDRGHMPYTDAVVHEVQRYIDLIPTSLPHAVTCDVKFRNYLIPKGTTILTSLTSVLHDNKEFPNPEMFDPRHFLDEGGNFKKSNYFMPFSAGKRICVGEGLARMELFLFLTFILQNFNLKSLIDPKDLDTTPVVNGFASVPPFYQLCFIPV

Cytochrome P450 2C9 = Cytochrome P450 2C9 (Homo sapiens, UniProt P11712)
Cytochrome P450 2C9, sequence (P11712 whole entry): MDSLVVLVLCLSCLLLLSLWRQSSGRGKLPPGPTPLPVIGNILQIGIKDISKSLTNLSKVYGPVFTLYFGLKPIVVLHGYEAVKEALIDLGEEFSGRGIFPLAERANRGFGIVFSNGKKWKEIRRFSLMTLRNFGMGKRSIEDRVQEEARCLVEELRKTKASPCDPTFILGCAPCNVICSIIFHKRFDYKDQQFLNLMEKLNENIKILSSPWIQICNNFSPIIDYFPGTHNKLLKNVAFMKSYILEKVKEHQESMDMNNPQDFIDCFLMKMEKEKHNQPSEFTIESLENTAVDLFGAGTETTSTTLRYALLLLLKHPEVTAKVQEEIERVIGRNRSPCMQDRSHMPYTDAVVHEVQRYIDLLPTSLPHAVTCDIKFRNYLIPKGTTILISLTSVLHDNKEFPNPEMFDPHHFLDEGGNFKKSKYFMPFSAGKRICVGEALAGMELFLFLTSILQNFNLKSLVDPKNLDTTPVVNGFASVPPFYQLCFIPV

Paired box protein Pax-8 = Paired box protein Pax-8 (Homo sapiens, UniProt Q06710); test: PAX8 transcriptional activity inhibition in RMG-I – RMG-I cells, luciferase, cherry-pick, dose response (AID 687027); format: functional, cell-based;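 further: luciferase reporter driven by Pax8 target thyroperoxidase promoter measured by SteadyGlo luminescence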
Paired box protein Pax-8, sequence (Q06710 whole entry): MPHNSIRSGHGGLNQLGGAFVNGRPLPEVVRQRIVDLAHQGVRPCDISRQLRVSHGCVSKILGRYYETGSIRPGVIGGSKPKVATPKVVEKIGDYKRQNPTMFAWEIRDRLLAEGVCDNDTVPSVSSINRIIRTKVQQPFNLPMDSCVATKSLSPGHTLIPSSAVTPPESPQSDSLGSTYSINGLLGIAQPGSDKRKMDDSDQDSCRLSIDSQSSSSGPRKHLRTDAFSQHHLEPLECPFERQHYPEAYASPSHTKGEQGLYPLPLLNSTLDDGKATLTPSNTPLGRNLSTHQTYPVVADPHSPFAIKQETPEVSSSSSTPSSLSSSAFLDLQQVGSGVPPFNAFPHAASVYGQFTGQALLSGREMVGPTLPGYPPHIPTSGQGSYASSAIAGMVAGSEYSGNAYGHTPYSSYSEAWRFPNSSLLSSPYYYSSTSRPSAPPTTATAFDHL

[2] = target: T1, Corticotropin-releasing factor receptor 2/Corticotropin-releasing factor-binding protein (Homo sapiens, UniProt P24387+Q13324); test: Dose Response confirmation of uHTS hits for small molecule antagonists of the CRF-binding protein and CRF-R2 receptor complex.; format: functional; settings: read-out: IC50_Mean
T1 sequence (Q13324 whole entry): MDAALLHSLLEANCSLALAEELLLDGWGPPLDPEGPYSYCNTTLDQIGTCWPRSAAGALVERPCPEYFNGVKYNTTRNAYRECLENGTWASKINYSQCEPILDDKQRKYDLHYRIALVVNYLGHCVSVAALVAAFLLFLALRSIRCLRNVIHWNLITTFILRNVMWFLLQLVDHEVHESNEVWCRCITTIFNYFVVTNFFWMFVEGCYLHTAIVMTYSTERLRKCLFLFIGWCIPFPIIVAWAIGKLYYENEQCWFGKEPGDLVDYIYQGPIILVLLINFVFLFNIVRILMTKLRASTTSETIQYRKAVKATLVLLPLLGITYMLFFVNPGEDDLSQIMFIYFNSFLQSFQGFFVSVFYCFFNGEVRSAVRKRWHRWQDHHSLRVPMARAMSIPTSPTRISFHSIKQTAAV
T1 sequence (P24387 whole entry): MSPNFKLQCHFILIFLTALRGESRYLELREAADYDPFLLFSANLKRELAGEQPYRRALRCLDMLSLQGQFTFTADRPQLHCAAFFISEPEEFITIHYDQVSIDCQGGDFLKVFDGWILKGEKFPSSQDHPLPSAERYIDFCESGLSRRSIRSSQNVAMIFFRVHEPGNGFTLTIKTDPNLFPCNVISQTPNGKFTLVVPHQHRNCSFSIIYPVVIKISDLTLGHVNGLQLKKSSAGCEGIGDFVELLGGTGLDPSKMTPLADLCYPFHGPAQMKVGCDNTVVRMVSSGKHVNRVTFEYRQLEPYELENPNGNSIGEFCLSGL

[3] = target: T1, Corticotropin-releasing factor receptor 2/Corticotropin-releasing factor-binding protein; test: activators of CRF receptor 2 with binding protein – uHTS hits, confirmation (AID 602473); format: functional; settings: read-out: EC50_Mean
[4] = tested on: Streptococcus sp. 'group A'; test: Streptococcus pyogenes SK(-)GAS viability under kanamycin – luminescence, BacTiterGlo, confirmation, counter-screen for streptokinase expression inhibitor project, dose response (AID 1900); format: functional, organism-based
Streptokinase A = target: T2, Streptokinase A (Streptococcus pyogenes serotype M1, UniProt P10520); test: viability-normalized secreted streptokinase activity reduction – plasminogen activation absorbance, OD405, dose response (AID 1914); format: functional, Streptococcus pyogenes M1 GAS;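 further: secreted streptokinase activity via plasminogen activation per viability signal from cell pellet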
T2 sequence (P10520 whole entry): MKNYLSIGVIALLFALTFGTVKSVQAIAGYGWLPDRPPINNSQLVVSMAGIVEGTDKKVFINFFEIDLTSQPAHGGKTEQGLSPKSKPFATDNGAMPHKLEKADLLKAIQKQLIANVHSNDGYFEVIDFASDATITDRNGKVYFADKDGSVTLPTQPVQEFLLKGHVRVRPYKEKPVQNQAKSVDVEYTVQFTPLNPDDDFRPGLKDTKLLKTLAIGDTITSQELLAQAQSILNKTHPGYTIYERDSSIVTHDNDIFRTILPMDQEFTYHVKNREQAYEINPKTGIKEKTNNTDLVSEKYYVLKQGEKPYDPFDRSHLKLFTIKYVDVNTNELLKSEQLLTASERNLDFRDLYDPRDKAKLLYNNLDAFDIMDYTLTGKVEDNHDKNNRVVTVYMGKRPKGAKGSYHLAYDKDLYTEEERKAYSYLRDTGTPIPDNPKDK

Streptococcus = test: GAS UMAA2166 growth inhibition – luminescence, BacTiterGlo, counter-screen for streptokinase expression inhibitor project, dose response (AID 1915); format: functional, organism-based;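 further: potency for reduction of bacterial viability or growth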
Cytochrome P450 2D6 = Cytochrome P450 2D6 (Homo sapiens, UniProt P10635);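 further: CYP2D6 member of a cytochrome P450 panel assay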
Cytochrome P450 2D6, sequence (P10635 whole entry): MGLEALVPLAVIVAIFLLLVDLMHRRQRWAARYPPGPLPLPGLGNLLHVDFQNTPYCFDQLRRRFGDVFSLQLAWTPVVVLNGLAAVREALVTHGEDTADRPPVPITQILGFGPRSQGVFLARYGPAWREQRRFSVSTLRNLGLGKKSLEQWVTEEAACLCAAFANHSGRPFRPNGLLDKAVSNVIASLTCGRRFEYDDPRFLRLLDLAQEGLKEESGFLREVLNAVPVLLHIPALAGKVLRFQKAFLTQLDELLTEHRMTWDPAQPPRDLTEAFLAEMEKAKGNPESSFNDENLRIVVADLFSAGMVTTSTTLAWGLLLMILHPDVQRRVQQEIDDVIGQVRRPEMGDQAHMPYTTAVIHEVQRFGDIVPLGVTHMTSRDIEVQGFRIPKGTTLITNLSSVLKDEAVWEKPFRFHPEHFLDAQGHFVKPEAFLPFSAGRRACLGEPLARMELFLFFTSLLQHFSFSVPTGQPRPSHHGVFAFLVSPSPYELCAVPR

Cytochrome P450 1A2 = target: T3, Cytochrome P450 1A2 (Homo sapiens, UniProt P05177);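 further: PubChem cytochrome P450 panel assay, CYP1A2 panel member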
T3 sequence (P05177 whole entry): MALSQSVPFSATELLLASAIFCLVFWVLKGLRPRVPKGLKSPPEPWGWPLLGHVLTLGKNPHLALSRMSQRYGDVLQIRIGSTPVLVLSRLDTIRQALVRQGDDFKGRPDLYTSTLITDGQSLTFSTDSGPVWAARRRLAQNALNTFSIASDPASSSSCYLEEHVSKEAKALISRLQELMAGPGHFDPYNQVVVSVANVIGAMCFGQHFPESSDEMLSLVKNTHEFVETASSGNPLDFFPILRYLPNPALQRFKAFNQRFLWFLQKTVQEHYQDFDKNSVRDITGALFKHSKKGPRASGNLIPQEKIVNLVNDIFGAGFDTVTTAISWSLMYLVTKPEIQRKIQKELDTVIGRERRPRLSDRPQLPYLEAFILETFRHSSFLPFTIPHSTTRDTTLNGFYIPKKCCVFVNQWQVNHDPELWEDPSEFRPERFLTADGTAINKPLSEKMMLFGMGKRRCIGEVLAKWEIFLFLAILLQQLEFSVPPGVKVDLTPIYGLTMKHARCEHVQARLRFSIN

FAD-linked sulfhydryl oxidase ALR, sequence (P55789 whole entry): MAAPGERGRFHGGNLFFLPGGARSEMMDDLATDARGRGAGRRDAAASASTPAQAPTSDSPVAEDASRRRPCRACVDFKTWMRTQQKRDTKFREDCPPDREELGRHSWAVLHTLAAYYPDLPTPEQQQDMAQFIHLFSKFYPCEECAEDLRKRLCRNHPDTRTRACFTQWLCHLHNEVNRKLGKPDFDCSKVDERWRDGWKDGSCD

## O=C(Cc1ccccc1)NNc1c2ccccc2nc2ccccc12
[1]
  AC50: 2.43 µM (active)

## CC(C)(C)NC(=O)C(=O)NNC(=O)c1ccccc1
Cytochrome P450 2C19
  AC50: inconclusive
Cytochrome P450 2C9
  AC50: 1.78 µM (inconclusive)

## C[C@@H]1CN([C@H](C)CO)C(=O)c2cc(NS(=O)(=O)c3ccc(Cl)cc3)ccc2O[C@@H](C)CCCCO[C@H]1CN(C)C(=O)C1CCCCC1
Paired box protein Pax-8
  AC50: 15.8 µM (active)

## CC(C)CN1CCN(Cc2cccc3nccnc23)CC1CCO (stereo not given)
[2]
  IC50: > 47.1 µM (inactive)
[3]
  EC50: > 53 µM (inactive)

## CN1c2ccc([N+](=O)[O-])cc2C(C)(C)C12C=Cc1cc(C(=O)O)ccc1O2 (stereo not given)
[1]
  AC50: 1.47 µM (active)

## COC(=O)c1cnn(C(=O)c2ccccc2Br)c1N
Cytochrome P450 2C9
  AC50: 22.4 µM (inconclusive)

## CCCCOc1ccc(C(=O)N/C(=C\c2cccc([N+](=O)[O-])c2)C(=O)OCCC)cc1
Cytochrome P450 2C9
  AC50: 0.708 µM (inconclusive)

## CCOC(=O)c1sc(NC(=O)CSc2n[nH]c(-c3ccncc3)n2)c(C#N)c1C
[2]
  IC50: 16.3 µM (active)
[3]
  EC50: 8.57 µM (active)

## CC1=CN2C(=NC(=O)CC2(C)C(=O)N(CC(=O)NC2CCCC2)c2ccccc2C)C=C1 (stereo not given)
[2]
  IC50: > 47.1 µM (inactive)
[3]
  EC50: > 53 µM (inactive)

## Cc1cccc(C)c1OCC(=O)Nc1ccccc1N1CCCCC1
[4]
  EC50: 3.36 µM (active)
Streptokinase A
  EC50: 4.15 µM (active)
Streptococcus
  EC50: 12.5 µM (active)

## CC(NC(=O)CCCCCNC(=O)N1CCn2c1nc1ccccc12)c1ccccc1 (stereo not given)
[1]
  AC50: 4.51 µM (active)

## N#Cc1cccc(-c2ccc3ncnc(NCc4cccs4)c3c2)c1
Cytochrome P450 2D6
  AC50: 12.6 µM (inconclusive)
Cytochrome P450 2C9
  AC50: 0.501 µM (inconclusive)

## Cc1ccccc1N=Nc1c(N)n[nH]c1N
[1]
  AC50: 5.72 µM (active)

## CCCCC(NC(=O)CCc1c(C)c2cc3c4c(oc3c(C)c2oc1=O)CCCC4)C(=O)O (stereo not given)
[1]
  AC50: 7.78 µM (active)

## N#Cc1ccc(CN2CC[C@@]3(CCCN(C(=O)c4ccncc4)C3)C2)cc1
Cytochrome P450 2D6
  AC50: 20 µM (inconclusive)
Cytochrome P450 1A2
  AC50: 39.8 µM (inconclusive)
Cytochrome P450 2C9
  AC50: 31.6 µM (inconclusive)

## Cc1ccc(Nc2nc(CSc3n[nH]c(N)n3)cs2)cc1
[1]
  AC50: < 0.005 µM (active)

## COc1ccc(NC2CCCN(C(=O)c3cccc(C)n3)C2)cc1OC (stereo not given)
[2]
  IC50: > 47.1 µM (inactive)
[3]
  EC50: > 53 µM (inactive)

## CC(C)c1ccc(CNc2cc(N3CCCC3)ccc2[N+](=O)[O-])cc1
Cytochrome P450 2C9
  AC50: 2.24 µM (inconclusive)

## Cc1ccccc1NC(=O)C(=O)NC(C)CCc1ccccc1 (stereo not given)
[4]
  EC50: > 150 µM (not active)
Streptokinase A
  EC50: > 150 µM (not active)
Streptococcus
  EC50: > 150 µM (not active)

## CCOC(=O)c1cnn(-c2nc(-c3cccc(F)c3)cs2)c1C(F)(F)F
[4]
  EC50: 9.99 µM (active)
Streptokinase A
  EC50: 20.8 µM (active)
Streptococcus
  EC50: 17.6 µM (active)

## COc1cc(NC(=O)c2ccccc2Cl)ccc1NC(=O)c1ccco1
Cytochrome P450 2D6
  AC50: 22.4 µM (inconclusive)
Cytochrome P450 1A2
  AC50: 17.8 µM (inconclusive)
Cytochrome P450 2C9
  AC50: 1.12 µM (inconclusive)

## CNc1ccc(C2(O)C(=O)c3ccccc3C2=O)cc1
[1]
  AC50: 0.664 µM (active)

## Cc1ccc(-n2nnnc2SCC(=O)Nc2cccnc2Cl)cc1
[2]
  IC50: > 47.1 µM (inactive)
[3]
  EC50: > 53 µM (inactive)
